Experimental data reported in the NIST ThermoML archive (doi:10.1021/je800150h).
± gives the expanded uncertainty stated by the source.

Test: xn = mol fraction of the nth substance listed
Conditions: 101 kPa, Liquid

CCO [ethanol] + O
Conditions | mass density [kg/m3] | viscosity [mPa·s]
268.1 K, x2 = 0.1 | 824.9 ± 3.8 | 2.307 ± 0.11
268.1 K, x2 = 0.2 | 838.2 ± 3.9 | 2.805 ± 0.13
268.1 K, x2 = 0.3 | 852.2 ± 4 | 3.345 ± 0.15
268.1 K, x2 = 0.4 | 867.7 ± 4.1 | 3.991 ± 0.18
268.1 K, x2 = 0.5 | 886.6 ± 4.2 | 4.829 ± 0.22
268.1 K, x2 = 0.6 | 908.1 ± 4.3 | 5.931 ± 0.26
268.1 K, x2 = 0.7 | 931.6 ± 4.4 | 7.172 ± 0.3
268.1 K, x2 = 0.8 | 951 ± 4.5 | 7.549 ± 0.32
268.1 K, x2 = 0.9 | 977.3 ± 4.6 | 6.025 ± 0.26
273.1 K, x2 = 0.1 | 820.3 ± 3.6 | 2.059 ± 0.096
273.1 K, x2 = 0.2 | 833.7 ± 3.7 | 2.491 ± 0.12
273.1 K, x2 = 0.3 | 847.7 ± 3.8 | 2.938 ± 0.14
273.1 K, x2 = 0.4 | 863.4 ± 3.9 | 3.451 ± 0.16
273.1 K, x2 = 0.5 | 882.1 ± 3.9 | 4.123 ± 0.19
273.1 K, x2 = 0.6 | 903.5 ± 4.1 | 4.978 ± 0.23
273.1 K, x2 = 0.7 | 927.1 ± 4.2 | 5.947 ± 0.26
273.1 K, x2 = 0.8 | 948 ± 4.3 | 6.169 ± 0.27
273.1 K, x2 = 0.9 | 975.6 ± 4.4 | 4.997 ± 0.23
278.1 K, x2 = 0.1 | 815.9 ± 3.4 | 1.837 ± 0.087
278.1 K, x2 = 0.2 | 829 ± 3.5 | 2.21 ± 0.1
278.1 K, x2 = 0.3 | 842.9 ± 3.6 | 2.579 ± 0.12
278.1 K, x2 = 0.4 | 858.8 ± 3.6 | 2.98 ± 0.14
278.1 K, x2 = 0.5 | 877.7 ± 3.7 | 3.518 ± 0.16
278.1 K, x2 = 0.6 | 899.3 ± 3.8 | 4.176 ± 0.19
278.1 K, x2 = 0.7 | 922.7 ± 4 | 4.933 ± 0.22
278.1 K, x2 = 0.8 | 945 ± 4.1 | 5.037 ± 0.23
278.1 K, x2 = 0.9 | 973.2 ± 4.2 | 4.089 ± 0.19
283.1 K, x2 = 0.1 | 811.4 ± 3.2 | 1.639 ± 0.078
283.1 K, x2 = 0.2 | 824.7 ± 3.3 | 1.959 ± 0.092
283.1 K, x2 = 0.3 | 838.5 ± 3.4 | 2.26 ± 0.11
283.1 K, x2 = 0.4 | 854.1 ± 3.4 | 2.57 ± 0.12
283.1 K, x2 = 0.5 | 872.8 ± 3.5 | 2.995 ± 0.14
283.1 K, x2 = 0.6 | 894.6 ± 3.6 | 3.499 ± 0.16
283.1 K, x2 = 0.7 | 918.7 ± 3.8 | 4.093 ± 0.19
283.1 K, x2 = 0.8 | 941.4 ± 3.9 | 4.102 ± 0.19
283.1 K, x2 = 0.9 | 970.8 ± 4 | 3.34 ± 0.15
288.15 K, x2 = 0.1 | 806.9 ± 3 | 1.51 ± 0.072
288.15 K, x2 = 0.2 | 820.1 ± 3.1 | 1.721 ± 0.081
288.15 K, x2 = 0.3 | 833.9 ± 3.1 | 1.98 ± 0.093
288.15 K, x2 = 0.4 | 849.5 ± 3.2 | 2.212 ± 0.1
288.15 K, x2 = 0.5 | 868.5 ± 3.3 | 2.539 ± 0.12
288.15 K, x2 = 0.6 | 889.6 ± 3.4 | 2.922 ± 0.13
288.15 K, x2 = 0.7 | 914.5 ± 3.6 | 3.372 ± 0.15
288.15 K, x2 = 0.8 | 938 ± 3.7 | 3.433 ± 0.16
288.15 K, x2 = 0.9 | 967.3 ± 3.8 | 2.706 ± 0.12
293.15 K, x2 = 0.1 | 802.1 ± 2.8 | 1.355 ± 0.065
293.15 K, x2 = 0.2 | 815.6 ± 2.9 | 1.515 ± 0.072
293.15 K, x2 = 0.3 | 829.4 ± 2.9 | 1.715 ± 0.081
293.15 K, x2 = 0.4 | 845 ± 3 | 1.901 ± 0.089
293.15 K, x2 = 0.5 | 863.8 ± 3.1 | 2.153 ± 0.1
293.15 K, x2 = 0.6 | 885.1 ± 3.2 | 2.463 ± 0.11
293.15 K, x2 = 0.7 | 909.9 ± 3.4 | 2.842 ± 0.13
293.15 K, x2 = 0.8 | 934.6 ± 3.5 | 2.841 ± 0.13
293.15 K, x2 = 0.9 | 963.7 ± 3.6 | 2.268 ± 0.11
298.15 K, x2 = 0.1 | 797.7 ± 3 | 1.249 ± 0.06
298.15 K, x2 = 0.2 | 811 ± 3 | 1.353 ± 0.065
298.15 K, x2 = 0.3 | 825.1 ± 3.1 | 1.513 ± 0.072
298.15 K, x2 = 0.4 | 840.6 ± 3.2 | 1.651 ± 0.078
298.15 K, x2 = 0.5 | 859.2 ± 3.3 | 1.84 ± 0.09
298.15 K, x2 = 0.6 | 880.6 ± 3.4 | 2.089 ± 0.098
298.15 K, x2 = 0.7 | 905.3 ± 3.5 | 2.35 ± 0.11
298.15 K, x2 = 0.8 | 931.3 ± 3.7 | 2.45 ± 0.11
298.15 K, x2 = 0.9 | 960.3 ± 3.8 | 1.92 ± 0.09
303.15 K, x2 = 0.1 | 793 ± 3.1 | 1.156 ± 0.056
303.15 K, x2 = 0.2 | 806 ± 3.2 | 1.218 ± 0.059
303.15 K, x2 = 0.3 | 820.6 ± 3.3 | 1.356 ± 0.065
303.15 K, x2 = 0.4 | 836.1 ± 3.4 | 1.446 ± 0.069
303.15 K, x2 = 0.5 | 854.8 ± 3.4 | 1.598 ± 0.076
303.15 K, x2 = 0.6 | 876.1 ± 3.6 | 1.812 ± 0.085
303.15 K, x2 = 0.7 | 901 ± 3.7 | 2.04 ± 0.095
303.15 K, x2 = 0.8 | 927.6 ± 3.8 | 2.101 ± 0.098
303.15 K, x2 = 0.9 | 956.2 ± 4 | 1.656 ± 0.078
308.15 K, x2 = 0.1 | 788.2 ± 3.3 | 1.067 ± 0.052
308.15 K, x2 = 0.2 | 801.4 ± 3.4 | 1.11 ± 0.054
308.15 K, x2 = 0.3 | 816 ± 3.4 | 1.215 ± 0.059
308.15 K, x2 = 0.4 | 831.4 ± 3.5 | 1.296 ± 0.063
308.15 K, x2 = 0.5 | 850.1 ± 3.6 | 1.407 ± 0.067
308.15 K, x2 = 0.6 | 871.4 ± 3.7 | 1.582 ± 0.075
308.15 K, x2 = 0.7 | 896.5 ± 3.8 | 1.78 ± 0.084
308.15 K, x2 = 0.8 | 923.8 ± 4 | 1.772 ± 0.084
308.15 K, x2 = 0.9 | 952.7 ± 4.1 | 1.448 ± 0.069
313.15 K, x2 = 0.1 | 783.6 ± 3.5 | 0.92 ± 0.046
313.15 K, x2 = 0.2 | 796.8 ± 3.5 | 1.004 ± 0.05
313.15 K, x2 = 0.3 | 811.1 ± 3.6 | 1.096 ± 0.054
313.15 K, x2 = 0.4 | 826.9 ± 3.7 | 1.149 ± 0.056
313.15 K, x2 = 0.5 | 845.2 ± 3.8 | 1.27 ± 0.06
313.15 K, x2 = 0.6 | 866.8 ± 3.9 | 1.43 ± 0.068
313.15 K, x2 = 0.7 | 892 ± 4 | 1.56 ± 0.074
313.15 K, x2 = 0.8 | 919.5 ± 4.2 | 1.557 ± 0.074
313.15 K, x2 = 0.9 | 949 ± 4.3 | 1.271 ± 0.061
318.15 K, x2 = 0.1 | 779 ± 3.6 | 0.86 ± 0.043
318.15 K, x2 = 0.2 | 792.2 ± 3.7 | 0.925 ± 0.046
318.15 K, x2 = 0.3 | 806.6 ± 3.8 | 0.998 ± 0.049
318.15 K, x2 = 0.4 | 822.4 ± 3.8 | 1.039 ± 0.051
318.15 K, x2 = 0.5 | 840.5 ± 3.9 | 1.14 ± 0.06
318.15 K, x2 = 0.6 | 862.1 ± 4 | 1.27 ± 0.061
318.15 K, x2 = 0.7 | 887.4 ± 4.2 | 1.371 ± 0.066
318.15 K, x2 = 0.8 | 915.5 ± 4.3 | 1.369 ± 0.066
318.15 K, x2 = 0.9 | 945.5 ± 4.5 | 1.121 ± 0.055
323.15 K, x2 = 0.1 | 774.3 ± 3.8 | 0.76 ± 0.039
323.15 K, x2 = 0.2 | 787.5 ± 3.8 | 0.839 ± 0.043
323.15 K, x2 = 0.3 | 801.9 ± 3.9 | 0.902 ± 0.045
323.15 K, x2 = 0.4 | 817.7 ± 4 | 0.932 ± 0.047
323.15 K, x2 = 0.5 | 835.8 ± 4.1 | 1.02 ± 0.05
323.15 K, x2 = 0.6 | 857.3 ± 4.2 | 1.14 ± 0.056
323.15 K, x2 = 0.7 | 883 ± 4.3 | 1.17 ± 0.057
323.15 K, x2 = 0.8 | 911.2 ± 4.5 | 1.202 ± 0.058
323.15 K, x2 = 0.9 | 942 ± 4.6 | 0.975 ± 0.048
